This is an account of results in ChEMBL document CHEMBL1156270, “Small molecule JNK (c-Jun N-terminal kinase) inhibitors” (J Med Chem, 2010).

The subject of series [1] is Mus musculus. As to the kind of experiment: Reduction of body weight in diet-induced obese mouse at 30 mg/kg, po for 24 days. The class given is functional. On the set-up: scale not given: the % may be the effect or the level left.
The test system of series [2] is Mus musculus. As to the kind of experiment: Reduction of fat mass in diet-induced obese mouse at 30 mg/kg, po for 24 days relative to control. The class given is functional. On the set-up: scale not given: the % may be the effect or the level left.
Series [3] has as its target T1, Mitogen-activated protein kinase 8 (Homo sapiens, UniProt P45983). As to the kind of experiment: Inhibition of JNK1.
Series [4] deals with Mitogen-activated protein kinase 9 (Homo sapiens, UniProt P45984). As to the kind of experiment: Inhibition of JNK2.
Series [5] concerns the target Mitogen-activated protein kinase 10 (Homo sapiens, UniProt P53779). As to the kind of experiment: Inhibition of JNK3.
In series [6] the target is Mitogen-activated protein kinase 14 (Homo sapiens, UniProt Q16539). The series can be described thus: Inhibition of p38alpha.
The nature of series [7]: Oral bioavailability in rat. It is filed as ADME, organism-based. Conditions: in vivo.
Series [8] is filed under the species Mus musculus. The series can be described thus: Inhibition of LPS-induced TNFalpha production in mouse. The class given is functional.
The subject of another series is SCG. The series can be described thus: Protection against NGF deprivation-induced neuronal apoptosis in rat SCG cells after 24 hrs by MTT assay. It is filed as functional, cell-based.
The target in series [9] is T1, Mitogen-activated protein kinase 8. The series can be described thus: Binding affinity to JNK1.

Sequence of Mitogen-activated protein kinase 10 (P53779 whole entry): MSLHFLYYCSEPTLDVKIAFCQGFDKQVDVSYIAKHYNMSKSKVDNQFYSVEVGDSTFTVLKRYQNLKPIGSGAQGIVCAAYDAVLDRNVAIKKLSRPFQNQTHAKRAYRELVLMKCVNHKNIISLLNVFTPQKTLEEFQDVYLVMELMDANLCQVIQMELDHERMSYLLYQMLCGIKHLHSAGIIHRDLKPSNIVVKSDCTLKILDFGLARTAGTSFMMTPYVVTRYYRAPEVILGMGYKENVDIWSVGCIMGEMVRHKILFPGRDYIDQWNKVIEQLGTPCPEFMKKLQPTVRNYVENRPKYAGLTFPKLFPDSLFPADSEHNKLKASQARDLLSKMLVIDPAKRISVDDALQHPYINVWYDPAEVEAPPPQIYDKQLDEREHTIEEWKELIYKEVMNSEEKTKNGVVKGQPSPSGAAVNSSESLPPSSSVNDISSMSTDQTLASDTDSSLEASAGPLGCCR
T1 sequence (P45983 whole entry): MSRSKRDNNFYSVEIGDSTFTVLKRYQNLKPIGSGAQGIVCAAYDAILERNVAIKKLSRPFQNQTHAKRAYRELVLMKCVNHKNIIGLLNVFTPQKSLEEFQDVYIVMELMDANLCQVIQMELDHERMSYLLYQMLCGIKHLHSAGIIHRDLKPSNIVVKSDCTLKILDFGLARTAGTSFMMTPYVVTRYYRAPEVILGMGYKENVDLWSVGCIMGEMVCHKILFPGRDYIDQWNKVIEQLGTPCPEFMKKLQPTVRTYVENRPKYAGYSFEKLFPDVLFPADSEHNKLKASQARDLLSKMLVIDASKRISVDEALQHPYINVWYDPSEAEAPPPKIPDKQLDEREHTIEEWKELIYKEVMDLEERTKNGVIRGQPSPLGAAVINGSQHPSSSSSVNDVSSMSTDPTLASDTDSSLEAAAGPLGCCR
Sequence of Mitogen-activated protein kinase 14 (Q16539 whole entry): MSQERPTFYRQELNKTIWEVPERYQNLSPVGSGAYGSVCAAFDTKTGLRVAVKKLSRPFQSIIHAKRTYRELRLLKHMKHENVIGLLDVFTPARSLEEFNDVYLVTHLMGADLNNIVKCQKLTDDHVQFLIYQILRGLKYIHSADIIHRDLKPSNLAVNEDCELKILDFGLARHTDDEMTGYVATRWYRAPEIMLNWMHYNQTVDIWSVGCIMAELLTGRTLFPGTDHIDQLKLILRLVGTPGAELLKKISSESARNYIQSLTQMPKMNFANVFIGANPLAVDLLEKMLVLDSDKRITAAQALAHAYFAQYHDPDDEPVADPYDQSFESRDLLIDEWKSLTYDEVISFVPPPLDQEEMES
Sequence of Mitogen-activated protein kinase 9 (P45984 whole entry): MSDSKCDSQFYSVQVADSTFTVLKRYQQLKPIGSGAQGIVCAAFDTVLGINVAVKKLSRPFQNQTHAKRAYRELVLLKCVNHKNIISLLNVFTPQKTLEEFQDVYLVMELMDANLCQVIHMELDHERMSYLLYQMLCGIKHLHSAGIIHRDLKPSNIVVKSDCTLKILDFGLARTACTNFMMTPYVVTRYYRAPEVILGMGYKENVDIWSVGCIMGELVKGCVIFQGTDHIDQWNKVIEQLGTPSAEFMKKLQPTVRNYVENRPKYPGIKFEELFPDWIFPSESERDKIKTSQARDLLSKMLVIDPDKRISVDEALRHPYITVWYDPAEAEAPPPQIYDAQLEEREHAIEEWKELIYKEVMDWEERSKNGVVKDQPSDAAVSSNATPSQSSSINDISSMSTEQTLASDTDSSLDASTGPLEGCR

`O[C@H]1CC[C@H](Nc2nccc(-c3c[nH]nc3C3CCCOC3)n2)CC1` (some centres undefined): the results for the Activity in the series with Mus musculus [1] and in the series with Mus musculus [2] were 13% and 30.1%, respectively. In addition, the Ki in [3] was 9 nM; in [4], 17 nM; in [5], 16 nM.

`CN(C)CCCC(=O)Nc1cc(C(=O)O)cc(-c2n[nH]c3cc(Nc4ccccc4Cl)ccc23)c1`: the figures for the IC50 in series [6], in series [3] and in [5] were 903 nM, 101 nM and 3 nM, respectively.

`CCCNc1nccc(-c2c(-c3ccc(F)cc3)nc3n2[C@H](Cc2ccc(OC)cc2)CC3)n1`: the IC50 in series [6] is 54 nM; in series [5], 10.9 nM.

Turning to `CN(C)c1c(-c2ccnc(N[C@H]3CC[C@H](O)CC3)n2)cnn1Cc1ccccc1`, the values for the Ki in [3], in series [4] and in series [5] were 3 nM, 6 nM and 5 nM, respectively.

`N#C/C(=C1/Nc2ccccc2S1)c1ccnc(NCCc2cccnc2)n1`: in series [7], the bioavailability was 38%. Further, the ED50 in the series listed under Mus musculus [8] stood at 3 mg/kg.

With `O=C(NCCCn1cnc(-c2ccc(F)cc2)c1-c1ccncc1)c1ccccc1`, in [6], the IC50 was 46 nM.

For the compound `c1ccc(Nc2ccc3c(-c4ccccc4)n[nH]c3c2)cc1`, the concentration for half-maximal inhibition (IC50) in series [3] was > 10000 nM.

As for `O=C(NCc1ccc(S(=O)(=O)N2CCC(n3nnc4ccccc43)CC2)s1)c1ccc(Cl)cc1`, the IC50 in the series on SCG stood at 1700 nM.

H-RPKRPTTLNLF-OH registered a Kd in series [9] of 420 nM.
